Values joined by “and” are separate entries in the source; they are usually repeats but may differ in a detail not shown here. Equal values may be shown once.
Assays:
PDE3 (from bovine aorta) = experiment: PDE3 inhibition (FP or SPA general type of assay); assay type: biochemical; conditions: in the particular assays used
Source text: PDE3 can be purified from bovine aorta as described by H. Coste and P. Grondin, “Characterisation of a novel potent and specific inhibitor of type V phosphodiesterase”, Biochem. Pharmacol., 1995, 50, 1577-1585.
The ability of compounds to inhibit catalytic activity at PDE4B or 4D (human recombinant), PDE3 (from bovine aorta), PDE5 (human recombinant) or PDE6 (from bovine retina) can optionally be determined by Scintillation Proximity Assay (SPA) in a 96-well format.
Test compounds (as a solution in DMSO, suitably about 2 microlitre (ul) volume of DMSO solution) are preincubated at ambient temperature (room temperature, e.g. 19-23° C.) in Wallac Isoplates (code 1450-514) with PDE enzyme in 50 mM Tris-HCl buffer pH 7.5, 8.3 mM MgCl2, 1.7 mM EGTA, 0.05% (w/v) bovine serum albumin for 10-30 minutes (usually 30 minutes). […] Bound radioactive product is measured using a WALLAC TRILUX 1450 Microbeta scintillation counter. […] Curves are analysed using ActivityBase and XLfit (ID Business Solutions Limited, 2 Ocean Court, Surrey Research Park, Guildford, Surrey GU2 7QB, United Kingdom). Results are expressed as pIC50 values.
The compound of the invention (e.g. as prepared in Example 1) has also been tested for PDE3, PDE5 and PDE6 inhibition, e.g. using (independently for each PDE type) either a Fluorescence Polarisation (FP) general type of assay or using an SPA general type of assay.

[1] = system: TNF-α (TNF-alpha) production in Human Whole Blood; experiment: Inhibition of TNF-alpha production in Human Whole Blood (MSD assay); assay type: cell-based
Protocol: This is an optional supplementary test, e.g. for potentially orally-administrable PDE4 inhibitors. Also, as the assay may measure the effect of PDE4 inhibitors after loss by protein binding, it might possibly also be relevant to externally-topically-administrable PDE4 inhibitors as protein-binding-loss of compound is possible during transport through the skin.
Test compounds are prepared as a ca. 10 mM stock solution in DMSO and a dilution series prepared in DMSO with 8 successive 3-fold dilutions, either directly from the 10 mM stock solution or from a more dilute solution in DMSO. The compound is added to assay plates using a Biomek Fx liquid handling robot.
Heparinised blood drawn from normal volunteers is dispensed (ca. 100 μl=ca. 100 ul) into microtitre plate wells containing ca. 0.5 or ca. 1.0 μl (ul, microlitres) of an appropriately diluted test compound solution. […] Plasma TNFα content is determined by electrochemiluminescence assay using the MSD technology (see below), the IGEN technology (see below) or by enzyme linked immunosorbant assay (ELISA) (see below). […]
For the Whole Blood assay, plates are washed after 2 hours shaking with a Skanwasher 300 version B (Skatron Instruments AS. PO Box 8, N-3401 Lier, Norway). […] About 150 μl (ul) of Read Buffer T (2×) is added to the plates, which are then read on a MSD Sector 6000. […]

Compound: CCc1nc2c(cnn2CC)c(NC2CCOCC2)c1CNC(=O)c1cc(C)no1 [Example 1, N-{[1,6-diethyl-4-(tetrahydro-2H-pyran-4-ylamino)-1H-pyrazolo[3,4-b]pyridin-5-yl]methyl}-3-methyl-5-isoxazolecarboxamide]
- PDE4B pIC50 compared with PDE3 pIC50 (selectivity) (PDE3 (from bovine aorta)): inhibits PDE4B more strongly than it inhibits PDE3, PDE5 and PDE6
- IC50 ([1]; Homo sapiens, n = about 3 or 4, LPS-stimulated, read-out: Whole Blood, Mean pIC50 (MSD assay) (converted)): ~0.398 nM
- Whole Blood individual pIC50 test values (MSD assay) ([1]; individual measurements): ~9.19 and ~9.50 (2×) and > 9.82

Source: patent US20080255186A1, “Pyrazolo[3,4-B]Pyridine Compound, and Its Use as a Pde4 Inhibitor” (priority 2005, published 2008)
